In patent publication US20230365590A1, “BIPHENYL COMPOUND AS IMMUNOMODULATOR, PREPARATION METHOD THEREFOR AND APPLICATION THEREOF” (SHENZHEN CHIPSCREEN BIOSCIENCES CO., LTD., priority 2020, published 2023):

Assays:
[1] = target: PD-1/PD-L1 binding (recombinant human PD-L1-Fc fusion protein and His-PD-1 protein) (Homo sapiens (Human), UniProt Q9NZQ7); test: In vitro inhibitory activity against PD-1/PD-L1 binding (HTRF); conditions: read-out: IC50 for inhibiting PD-1/PD-L1 binding in vitro
From the text: Homogeneous time resolved fluorescence method (HTRF): This method uses the recombinant human PD-L1 protein fused with hFc tag and the recombinant human PD-1 protein fused with His tag, which are interacting ligands and receptors. When the anti-hFc antibody containing chelated Eu tag and the anti-His antibody containing XL665 fluorescein tag are used to bind with the above two corresponding tags respectively and are excited by 320 nm laser, energy can be transferred from Eu element to XL665 fluorescein due to ligand receptor binding, and the XL665 fluorescein is excited to emit light with a wavelength of 665 nm. When an inhibitor for inhibiting interaction of PD-L1 and PD-1 is added, the binding of the ligand and the receptor is destroyed, causing a long distance between Eu and XL665. As a result, the energy cannot be transferred, and the XL665 fluorescein will not be excited.
(§1) Experimental Materials and Devices The recombinant human PD-1 protein with His tag (His-PD-1 protein, Cat #: 10377-H08H-50) and the recombinant human PD-L1-Fc fusion protein (PD-L1-Fc fusion protein, Cat #: 10084-H02H-100) were purchased from Sino Biological Inc., anti-hFc-Eu^3+ antibody and anti-His-XL665 antibody were purchased from Cisbio, and other related reagents such as a diluent buffer (diluent buffer 5 (Cat #: 62DL5DDC) and a detection buffer (PPI-European detection buffer, Cat #: 61DB9RDF) were purchased from Cisbio. Fluorescence detector Tecan (Spark 10M) was purchased from Tecan Company in Switzerland.
The experiment process was carried out according to the flow required in the operating manual of the test reagent. The process was as follows: • (1) Experiment preparation: A test compound was diluted to different concentration gradients with the dilution buffer (the highest final concentration in a 20 μL final reaction system was 10 μM). The His-PD-1 protein was diluted to 800 nM (the final concentration in the 20 final reaction system was 100 nM). The PD-L1-Fc fusion protein was diluted to 16 nM (the final concentration was 2 nM). […] All tests were conducted by use of multiple holes. • (4) The fluorescence detector Tecan (Spark 10M) was used to detect the fluorescence signal of each hole. The excitation wavelength was 320 nm, and the emission wavelengths for detection were 620 nm and 665 nm, respectively. The strength of PD-1/PD-L1 binding refers to a fluorescence signal ratio Em665/Em620. • (5) Calculation formula of binding inhibition rate of test compound: Inhibition rate (%)=[1−(fluorescence signal ratio of detected hole−fluorescence signal ratio of 100% inhibition negative control)]/(fluorescence signal ratio of 0% inhibition positive control−fluorescence signal ratio of 100% inhibition negative control)×100%. The 50% inhibition concentration (IC50) was calculated after the PD-1/PD-L1 binding inhibition rates of the test compound with different concentration gradients were calculated respectively.

[2] = target: CD80/PD-L1 binding (recombinant human His-CD80 protein and PD-L1-Fc fusion protein) (Homo sapiens (Human), UniProt Q9NZQ7); test: In vitro inhibitory activity against CD80/PD-L1 binding (HTRF); conditions: read-out: IC50 for inhibiting CD80/PD-L1 binding in vitro
Chain of CD80/PD-L1 binding (recombinant human His-CD80 protein and PD-L1-Fc fusion protein) (Q9NZQ7 19-239): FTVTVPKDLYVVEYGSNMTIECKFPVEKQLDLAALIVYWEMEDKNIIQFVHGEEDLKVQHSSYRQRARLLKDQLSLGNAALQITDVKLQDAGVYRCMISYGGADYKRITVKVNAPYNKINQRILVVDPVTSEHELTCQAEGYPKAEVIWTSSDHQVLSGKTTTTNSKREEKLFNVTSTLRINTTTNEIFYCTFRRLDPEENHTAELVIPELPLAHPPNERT
From the text: In addition to PD-1, PD-L1 can also play an immune inhibition role by binding to CD80. Similarly, in vitro CD80/PD-L1 binding or binding inhibition test can also be conducted by homogeneous time-resolved fluorescence (HTRF). When the anti-hFc-Eu^3+ antibody and the anti-His-XL665 antibody are used to bind to the hFC tag fused to PD-L1 and the His tag fused to CD80 respectively, and after excitation with 320 nm laser, energy can be transferred from Eu element to XL665 fluorescein due to the binding of PD-L1 and CD80 to excite the XL665 fluorescein to emit light. When an inhibitor for inhibiting interaction of PD-L1 and CD80 is added, the binding of PD-L1 and CD80 is destroyed, causing a long distance between Eu and XL665. As a result, the energy cannot be transferred, and the XL665 fluorescein will not be excited.
as §1, with “The” for “Experimental Materials and Devices The”, “CD80” for “PD-1”, “(His-CD80” for “(His-PD-1”, “10698-H08H-100)” for “10377-H08H-50)”, “(Diluent” for “(diluent”
The experiment process was carried out according to the flow required in the operating manual of the test reagent (Invitrogen). The process was as follows: • (1) Experiment preparation: A test compound was diluted to different concentration gradients with the dilution buffer (the highest final concentration in a 20 μL final reaction system was 10 μM). The His-CD80 protein was diluted to 800 nM (the final concentration in the 20 final reaction system was 100 nM). The PD-L1-Fc fusion protein was diluted to 16 nM (the final concentration was 2 nM). The anti-His-XL665 antibody and the anti-hFc-Eu^3+antibody were diluted 20 times and 100 times respectively with the detection buffer according to reagent requirements. • (2) First, 5 μL of the test compound, 2.5 μL of the His-CD80 fusion protein and 2.5 μL of the […] fusion protein solution were well mixed and incubated at room temperature for 15 min; then, 5 μL of the anti-His-XL665 antibody and 5 μL of the anti-hFc-Eu^3+antibody were added to the system and further incubated for 3 h before test. • (3) During the test reaction, control groups were set, including a 0% inhibitory positive control without adding the test compound and a 100% inhibitory negative control without adding the CD80 protein. All tests were conducted by use of multiple holes. • (4) The fluorescence detector Tecan (Spark 10M) was used to detect the fluorescence signal of each hole. The excitation wavelength was 320 nm, and the emission wavelengths for detection were 620 nm and 665 nm, respectively. The strength of CD80/PD-L1 binding refers to a fluorescence signal ratio Em665/Em620. • (5) Calculation formula of binding inhibition rate of test compound: Inhibition rate (%)=[1−(fluorescence signal ratio of detected hole−fluorescence signal ratio of 100% inhibition negative control)]/(fluorescence signal ratio of 0% inhibition positive control — fluorescence signal ratio of 100% inhibition negative control)×100%. The 50% inhibition concentration (IC50) was calculated after the CD80/PD-L1 binding inhibition rates of the test compound with different concentration gradients were calculated respectively.

Chain of PD-1/PD-L1 binding (recombinant human PD-L1-Fc fusion protein and His-PD-1 protein) (Q9NZQ7 19-239): as above

Compound	IC50 [1] [nM]	IC50 [2] [nM]
COCC12CCC(CCCN3CCc4c(nc(C(=O)Nc5cccc(-c6cccc(NC(=O)c7nc8c(n7C)CCN(CCC79CCC(C(=O)O)(CC7)C9)C8)c6C)c5Cl)n4C)C3)(CC1)C2 [Compound I-1, 4-(2-(2-((2′-chloro-3′-(5-(3-(4-(methoxymethyl)bicyclo[2. 2.1]heptan-1-yl)propyl)-1-methyl-4,5,6,7-tetrahydro-1H-imidazo[4,5-c]pyridine-2-carboxamido) -2-methyl-[1,1′-biphenyl]-3-yl)carbamoyl)-1-methyl-1,4,6,7-tetrahydro-5H-imidazo[4,5-c]pyridin-5-yl)ethyl)bicyclo[2.2.1]heptane-1-carboxylic acid]	1.47	0.84
COCC12CCC(CCCN3CCc4c(nc(C(=O)Nc5cccc(-c6cccc(NC(=O)c7nc8c(n7C)CCN(CCC79CCC(C(=O)O)(CC7)C9)C8)c6Cl)c5C)n4C)C3)(CC1)C2 [Compound I-2, 4-(2-(2-((2-chloro-3′-(5-(3-(4-(methoxymethyl)bicyclo[2.2.1]heptan-1-yl)propyl)-1-methyl-4,5,6,7-tetrahydro-1H-imidazo[4,5-c]pyridine-2-carboxamido)-2′-methyl-[1,1′-biphenyl]-3-yl)carbamoyl)-1-methyl-1,4,6,7-tetrahydro-5H-imidazo[4,5-c]pyridin-5-yl)ethyl)bicyclo[2.2.1]heptane-1-carboxylic acid]	1.32	0.79
CCOCC12CCC(CCN3CCc4c(nc(C(=O)Nc5cccc(-c6cccc(NC(=O)c7nc8c(n7C)CCN(CCC79CCC(C(=O)O)(CC7)C9)C8)c6C)c5Cl)n4C)C3)(CC1)C2 [Compound I-3, 4-(2-(2-((2′-chloro-3′-(5-(2-(4-(ethoxymethyl)bicyclo[2.2.1]heptan-1-yl)ethyl)-1-methyl-4,5 ,6,7-tetrahydro-1H-imidazo[4,5-c]pyridine-2-carboxamido)-2-methyl-[1,1′-biphenyl]-3-yl)carbamoyl)-1-methyl-1,4,6,7-tetrahydro-5H-imidazo[4,5-c]pyridin-5-yl)ethyl)bicyclo[2.2.1]heptane-1-carboxylic acid]	1.19	0.96
COCC12CCC(CCN3CCc4c(nc(C(=O)Nc5cccc(-c6cccc(NC(=O)c7nc8c(n7C)CCN(CCC79CCC(C(=O)O)(CC7)C9)C8)c6C)c5Cl)n4C)C3)(CC1)C2 [Compound I-4, 4-(2-(2-((2′-chloro-3′-(5-(2-(4-(methoxymethyl)bicyclo[2. 2.1]heptan-1-yl)ethyl)-1-methyl-4,5,6,7-tetrahydro-1H-imidazo[4,5-c]pyridine-2-carboxamido)-2-methyl-[1 ,1′-biphenyl]-3-yl)carbamoyl)-1-methyl-1,4,6,7-tetrahydro-5H-imidazo[4,5-c]pyridin-5-yl)ethyl)bicyclo[2.2.1]heptane-1-carboxylic acid]	1.89	2.78
COCC12CCC(CCN3CCc4c(nc(C(=O)Nc5cccc(-c6cccc(NC(=O)c7nc8c(n7C)CCN(CCC79CCC(C(=O)O)(CC7)C9)C8)c6Cl)c5C)n4C)C3)(CC1)C2 [Compound I-5, 4-(2-(2-((2-chloro-3′-(5-(2-(4-(methoxymethyl)bicyclo[2.2.1]heptan-1-yl)ethyl)-1-methyl-4,5,6,7-tetrahydro-1H-imidazo[4,5-c]pyridine-2-carboxamido)-2′-methyl-[1,1′-biphenyl]-3-yl)carbamoyl)-1-methyl-1,4,6,7-tetrahydro-5H-imidazo [4,5-c]pyridin-5-yl)ethyl)bicyclo[2.2.1]heptane-1-carboxylic acid]	2.35	2.16
COCC12CCC(CCN3CCc4c(nc(C(=O)Nc5cccc(-c6cccc(NC(=O)c7nc8c(n7C)CCN(CCC79CCC(C(=O)O)(CC7)C9)C8)c6Cl)c5Cl)n4C)C3)(CC1)C2 [Compound I-6, 4-(2-(2-((2,2′-dichloro-3′-(5-(2-(4-(methoxymethyl)bicyclo[2.2.1]heptan-1-yl)ethyl)-1-methyl-4,5,6,7-tetrahydro-1H-imidazo[4,5-c]pyridine-2-carboxamido)-[1, 1′-biphenyl]-3-yl)carbamoyl)-1-methyl-1,4,6,7-tetrahydro-5H-imidazo[4,5-c]pyridin-5-yl)ethyl)bicyclo[2.2.1]heptane-1-carboxylic acid]		0.86
